# Laboratory results: US8273759B2, “Fungicide heterocyclyl-pyrimidinyl-amino derivatives” (Bayer Cropscience AG, priority 2007, dated 2012)
# Tested on: Pyricularia grisea
# Experiment: not given
# Assay type: in vivo
# Conditions: 500 ppm; rice plants sprayed 24 hours before contamination; grading 6 days after contamination
row,Structure (SMILES),"protection (good, at least 70%, or total), % of efficacy"
1,"CCC(COC)Nc1cc(-c2ccnc(Nc3ccnc(Cl)c3)n2)ccn1 (stereo not shown) [Compound 9, N-(2-chloropyridin-4-yl)-4-(2-{[1-(methoxymethyl)propyl]amino}pyridin-4-yl)pyrimidin-2-amine]",at least 70%

# Tested on: not listed separately
# Experiment: log P by reversed-phase HPLC (EEC Directive 79/831 Annex V.A8)
# Assay type: physicochemical
# Conditions: reversed-phase C 18, 40° C., 0.1% aqueous formic acid and acetonitrile gradient
# Protocol: Temperature: 40° C.; Mobile phases: 0.1% aqueous formic acid and acetonitrile; linear gradient from 10% acetonitrile to 90% acetonitrile.
row,Structure (SMILES),log PHCOOH
1,c1cc(Nc2nccc(-c3ccnc(NC4CCC4)c3)n2)nc(NC2CCC2)c1 [Compound 3],1.12
2,c1cc(Nc2nccc(-c3ccnc(NCC4CC4)c3)n2)cc(NCC2CC2)n1 [Compound 5],0.97
3,COCCCNc1cc(-c2ccnc(Nc3cccc(NCCCOC)n3)n2)ccn1 [Compound 6],0.83
4,Clc1cccc(Nc2nccc(-c3ccnc(NCC4CCCO4)c3)n2)n1 (stereo not shown) [Compound 27],1.64
5,c1cc(Nc2nccc(-c3ccnc(NC4CCCCC4)c3)n2)nc(NC2CCCCC2)c1 [Compound 4],1.70
6,CC(C)C(C)Nc1cc(-c2ccnc(Nc3cccc(Cl)n3)n2)ccn1 (stereo not shown) [Compound 26],2.15
7,c1cc(Nc2nccc(-c3ccnc(NC4CCC4)c3)n2)cc(NC2CCC2)n1 [Compound 19],1.05
8,CC(C)C(C)Nc1cc(Nc2nccc(-c3ccnc(NC(C)C(C)C)c3)n2)ccn1 (stereo not shown) [Compound 18],1.34
9,c1cc(NCC2CCCO2)nc(Nc2nccc(-c3ccnc(NCC4CCCO4)c3)n2)c1 (stereo not shown) [Compound 7],0.86
10,CCC(C)Nc1cc(-c2ccnc(Nc3ccc(OC)nc3)n2)ccn1 (stereo not shown) [Compound 39],1.48
11,CCC(COC)Nc1cc(-c2ccnc(Nc3cccc(Cl)n3)n2)ccn1 (stereo not shown) [Compound 29],1.85
12,CC(C)C(C)Nc1cc(-c2ccnc(Nc3cccc(NC(C)C(C)C)n3)n2)ccn1 (stereo not shown) [Compound 33],1.43
13,CCC(CC)Nc1cc(-c2ccnc(Nc3cccc(Cl)n3)n2)ccn1 [Compound 24],2.09
14,c1cc(Nc2nccc(-c3ccnc(NC4CCCC4)c3)n2)cc(NC2CCCC2)n1 [Compound 22],1.22
15,CCC(CC)Nc1cc(-c2ccnc(Nc3cccc(NC(CC)CC)n3)n2)ccn1 [Compound 30],1.47
16,COCC(C)Nc1cc(-c2ccnc(Nc3ccc(OC)nc3)n2)ccn1 (stereo not shown) [Compound 38],1.29
17,CCC(CO)Nc1cc(-c2ccnc(Nc3ccc(OC)nc3)n2)ccn1 (stereo not shown) [Compound 2],1.35
18,CCC(CC)Nc1cc(-c2ccnc(Nc3ccnc(Cl)c3)n2)ccn1 [Compound 13],1.64
19,CCCC(C)Nc1cc(-c2ccnc(Nc3ccnc(Cl)c3)n2)ccn1 (stereo not shown) [Compound 12],1.72

row,Structure (SMILES),log PHCOOH
1,c1cc(Nc2nccc(-c3ccnc(NC4CCCC4)c3)n2)nc(NC2CCCC2)c1 [Compound 31],1.23
2,c1cc(NCC2CC2)nc(Nc2nccc(-c3ccnc(NCC4CC4)c3)n2)c1 [Compound 16],0.96
3,c1cc(Nc2nccc(-c3ccnc(NC4CCCCC4)c3)n2)cc(NC2CCCCC2)n1 [Compound 15],1.52
4,CC(CN(C)C)Nc1cc(-c2ccnc(Nc3cccc(Cl)n3)n2)ccn1 (stereo not shown) [Compound 28],1.42
5,COc1ccc(Nc2nccc(-c3ccnc(NC4COC4)c3)n2)cn1 [Compound 36],1.10
6,CCC(CC)Nc1cc(Nc2nccc(-c3ccnc(NC(CC)CC)c3)n2)ccn1 [Compound 21],1.33
7,CCCCCNc1cc(Nc2nccc(-c3ccnc(NCCCCC)c3)n2)ccn1 [Compound 17],1.57
8,CCCC(C)Nc1cc(Nc2nccc(-c3ccnc(NC(C)CCC)c3)n2)ccn1 (stereo not shown) [Compound 20],1.43
9,COc1ccc(Nc2nccc(-c3ccnc(NCC(C)C)c3)n2)cn1 [Compound 46],1.42
10,COc1ccc(Nc2nccc(-c3ccnc(N(C)C)c3)n2)cn1 [Compound 1],1.24
11,Clc1cc(Nc2nccc(-c3ccnc(NC4CCCC4)c3)n2)ccn1 [Compound 14],1.58
12,CCC(C)Nc1cc(-c2ccnc(Nc3cccc(Cl)n3)n2)ccn1 (stereo not shown) [Compound 25],2.00
13,CCC(C)Nc1cc(-c2ccnc(Nc3cccc(NC(C)CC)n3)n2)ccn1 (stereo not shown) [Compound 32],1.23
14,CCC(C)Nc1cc(Nc2nccc(-c3ccnc(NC(C)CC)c3)n2)ccn1 (stereo not shown) [Compound 23],1.10
15,CCC(COC)Nc1cc(Nc2nccc(-c3ccnc(NC(CC)COC)c3)n2)ccn1 (stereo not shown) [Compound 34],1.10
16,Clc1cc(Nc2nccc(-c3ccnc(NC4CCC4)c3)n2)ccn1 [Compound 11],1.45
17,Clc1cc(Nc2nccc(-c3ccnc(NC4CCCCC4)c3)n2)ccn1 [Compound 8],1.64
18,COCC(C)Nc1cc(-c2ccnc(Nc3ccnc(Cl)c3)n2)ccn1 (stereo not shown) [Compound 35],1.34
19,CC(C)C(C)Nc1cc(-c2ccnc(Nc3ccnc(Cl)c3)n2)ccn1 (stereo not shown) [Compound 10],1.66

# Same assay, conditions: reversed-phase C18 HPLC column, reversed-phase C 18, 40° C., 0.1% aqueous formic acid and acetonitrile gradient, read-out: log PHCOOH
row,Structure (SMILES),chromatographic logP
1,"CCC(COC)Nc1cc(-c2ccnc(Nc3ccnc(Cl)c3)n2)ccn1 (stereo not shown) [Compound 9, N-(2-chloropyridin-4-yl)-4-(2-{[1-(methoxymethyl)propyl]amino}pyridin-4-yl)pyrimidin-2-amine]",1.37
